Data from patent publication US11618746B2, “Inhibitors of APOL1 and methods of using same” (Vertex Pharmaceuticals Incorporated, priority 2018, dated 2023).

Target: T1, APOL1 G1 Protein (Homo sapiens, UniProt O14791, I384M/S342G)
T1 sequence (O14791 28-398 S342G/I384M): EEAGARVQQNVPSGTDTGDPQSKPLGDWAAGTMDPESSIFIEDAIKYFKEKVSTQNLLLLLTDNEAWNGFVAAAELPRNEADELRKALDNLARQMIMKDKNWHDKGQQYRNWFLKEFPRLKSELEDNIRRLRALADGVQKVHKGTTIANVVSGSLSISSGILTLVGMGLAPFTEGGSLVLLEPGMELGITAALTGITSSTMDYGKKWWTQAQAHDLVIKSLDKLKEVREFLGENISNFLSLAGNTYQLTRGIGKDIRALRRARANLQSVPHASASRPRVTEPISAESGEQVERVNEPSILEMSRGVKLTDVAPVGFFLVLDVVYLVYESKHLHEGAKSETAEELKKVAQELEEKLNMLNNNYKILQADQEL
Assay: Trypanosoma brucei brucei lysis assay using APOL1 recombinant protein (AlamarBlue viability readout)
Type: cell-based
Conditions: Trypanosoma brucei brucei (Lister 427 VSG 221 bloodstream form) lysis by 0.05 μg/mL recombinant APOL1 G1, 16 hrs
Description: Trypanosoma brucei brucei is a blood stream parasite to which human, gorillas and baboon are immune due to the presence of the APOL1 protein in their HDL particles. The protein is uptaken by the parasite via the TbHpHb receptor located in its flagellar pocket and is bonded by the Hpr protein contained in the HDL particles which triggers the receptor endocytosis by the parasite.
Following endocytosis, the formed vesicle containing the HDL particle matures from early to late endosome, and subsequently to lysosome. The concomitant pH change in the lumen of the vesicle triggers the insertion of the APOL1 protein into the membrane of the late endosome/lysosome and hereby triggers lysosomal membrane premeabilisation and as a further downstream event, trypanosome lysis. Trypanosoma brucei brucei is sensitive to lysis by all three APOL1 variants (G0, G1, and G2).
The Trypanosoma brucei brucei lysis assay is a lysis assay of the parasite using recombinant APOL1 protein variant followed by a fluorescent detection method of viability by the addition of AlamarBlue reagent to the assay well, a general metabolic redox indicator (AlamarBlue assay).
Briefly, the AlamarBlue active compound, the resazurin, a blue, water soluble, non-toxic and cell permeable molecule, which can be followed by absorbance, is reduced by various metabolic pathways into resorufin, a red compound which can be followed by either absorbance or fluorescence. The assay allows the calculation of the percent viability (percent of living Trypanosomes remaining in each well) at the end of a lysis relative to the untreated condition by interpolation of fluorescent values (FLU) on a standard curve with a known amount of seeded trypanosome/well.
Trypanosoma brucei brucei (ATCC, Cat. No. PRA-382) • Lister 427 VSG 221 bloodstream form.
Thaw/Expansion Media (ATCC Medium 2834 Modified HMI-9 Medium)
Equipment • E1-Clip Tip pipette 12 channel adjustable 2-125 μL, Cat. No. 4672070BT • ThermoFisher MultiDrop 384, Cat. No. 5840300 • Multidrop • Agilent Bravo, Cat. No. G5409A • Bravo • SpectraMax M5
Trypanosoma brucei brucei Culture
Step 2, Day 4 • Centrifuge at 800×g for 5 minutes at room temperature. • Resuspend in 1 mL media. • Make a 1:25 fold dilution (10 μL/240 μL media). • Count on a hemocytometer (after adding parasites). • Let sit for 1-2 minutes for the parasites to settle. • Count should be approximately 100 viable motile parasites/16 grid or approximately 25×10^6 parasites/flask. • Passage the parasites by adding 1×10^6 parasites/T75 flask in 20 mL media. • Passage the parasites by adding 2.33×10^6 parasites/T175 flask in 46.6 mL media. • For every T75 flask should make enough for approximately 1.5×384 well assay plates. • For every T175 flask should make enough for approximately 3.8×384 well assay plates.
Step 3. Day 6 • Centrifuge at 800×g for 5 minutes. • Resuspend in 3 mL assay media (No phenol red, no FBS) per 75 starting flask. • Resuspend in 7 mL assay media (No phenol red, no FBS) per 175 flask • Make a 1:25 fold dilution. • Count by hemocytometer. • Every T75 flask set up should have approximately 75×10^6 parasites/flask (verify doubling time=8.7 hrs 1 hr). • Every T175 flask set up should have approximately 175×10^6 parasites/flask (verify doubling time=8.7 hrs±1 hr). • Require 46×10^6 parasites per 384 well plate (at 120,000 parasites per well).
Step 2, Day 2 • Centrifuge at 800×g for 5 minutes at room temperature. • Resuspend in 1 mL media. • Make a 1:25 fold dilution (10 L/240 μL media). • Let sit for 1-2 minutes for the parasites to settle. • Count should be approximately 100 viable motile parasites/16 grid or approximately 8×10^6 parasites per flask. • Passage the parasites by adding 1.25×10^6 parasites per T75 flask in 20 mL media. • For every T75 flask set up should have approximately 1.5×384 well assay plates. • For every T175 flask setup should have approximately 3.8×384 well assay plates. […]

SMILES | IC50 [nM]
CC1C[C@H](NC(=O)CCc2c(-c3ccc(F)cc3)[nH]c3c(F)cc(F)cc23)C(=O)N1 (mixture of isomers) [Compound 6] | 250 to 1000
CC1(NC(=O)CCc2c(-c3ccc(F)cc3)[nH]c3c(F)cc(F)cc23)CCNC1=O (racemic) [Compound 14] | < 250
O=C(CCc1c(-c2ccc(F)cc2)[nH]c2c(F)cc(F)cc12)N[C@H]1CCNC1=O [Compound 3, 3-[5,7-difluoro-2-(4-fluorophenyl)-1H-indol-3-yl]-N-[(3S)-2-oxopyrrolidin-3-yl]propanamide] | < 250
O=C1C[C@H](NC(=O)CCc2c(-c3ccc(F)cc3)[nH]c3c(F)cc(F)cc23)C(=O)N1 [Compound 5] | 250 to 1000
O=C(CCc1c(-c2ccc(F)cc2)[nH]c2c(F)cc(F)cc12)N[C@H]1C[C@@H](CO)NC1=O [Compound 7] | > 1000
O=C(CCc1c(-c2ccc(F)cc2)[nH]c2c(F)cc(F)cc12)N[C@H]1C[C@H](CO)NC1=O [Compound 8] | > 1000
O=C(CCc1c(-c2ccc(F)cc2)[nH]c2c(F)cc(F)cc12)N[C@@H]1CCNC1=O [Compound 13] | < 250
O=C1C[C@@H](NC(=O)CCc2c(-c3ccc(F)cc3)[nH]c3c(F)cc(F)cc23)C(=O)N1 [Compound 16] | 250 to 1000
N#Cc1ccc(-c2[nH]c3c(F)cc(F)cc3c2CCC(=O)N[C@H]2CCNC2=O)cc1 [Compound 20, 3-[2-(4-cyanophenyl)-5,7-difluoro-1H-indol-3-yl]-N-[(3S)-2-oxopyrrolidin-3-yl]propanamide] | < 250
O=C(CCc1c(-c2ccc(OC(F)F)cc2)[nH]c2c(F)cc(F)cc12)N[C@H]1CCNC1=O [Compound 21] | < 250
O=C(CCc1c(-c2ccccc2)[nH]c2c(F)cc(F)cc12)N[C@@H]1C(=O)NC[C@H]1O [Compound 26] | < 250
O=C(CCc1c(-c2ccc(F)cc2)[nH]c2c(F)cc(Br)cc12)N[C@H]1CCNC1=O [Compound 27] | < 250
N#Cc1cc(F)c2[nH]c(-c3ccc(F)cc3)c(CCC(=O)N[C@H]3CCNC3=O)c2c1 [Compound 28] | > 1000
Cc1cc(F)c2[nH]c(-c3ccc(F)cc3)c(CCC(=O)N[C@@H]3C(=O)NC[C@H]3O)c2c1 [Compound 29] | < 250
O=C(CCc1c(-c2ccc(F)cc2)[nH]c2c(F)cc(Cl)cc12)N[C@@H]1C(=O)NC[C@H]1O [Compound 30] | < 250
O=C(CCc1c(-c2ccc(F)cc2)[nH]c2c(Cl)cc(F)cc12)N[C@@H]1C(=O)NC[C@H]1O [Compound 36] | < 250
Cc1cc(F)cc2c(CCC(=O)N[C@@H]3C(=O)NC[C@H]3O)c(-c3ccc(F)cc3)[nH]c12 [Compound 37] | < 250
COc1cc(F)cc2c(CCC(=O)N[C@@H]3C(=O)NC[C@H]3O)c(-c3ccc(F)cc3)[nH]c12 [Compound 40] | < 250
N#Cc1cc(F)cc2c(CCC(=O)N[C@@H]3C(=O)NC[C@H]3O)c(-c3ccc(F)cc3)[nH]c12 [Compound 42] | < 250
Cc1ccc2[nH]c(-c3ccc(Br)cc3)c(CCC(=O)N[C@H]3CCNC3=O)c2c1 [Compound 43, 3-[2-(4-bromophenyl)-5-methyl-1H-indol-3-yl]-N-[(3S)-2-oxopyrrolidin-3-yl]propanamide] | < 250
O=C(CCc1c(-c2ccccc2)[nH]c2ccc(Cl)cc12)N[C@@H]1C(=O)NC[C@H]1O [Compound 44, 3-(5-chloro-2-phenyl-1H-indol-3-yl)-N-[(3S,4R)-4-hydroxy-2-oxo-pyrrolidin-3-yl]propanamide] | < 250
O=C(CCc1c(-c2ccc(F)cc2)[nH]c2ccc(F)cc12)N[C@@H]1C(=O)NC[C@H]1O [Compound 46] | < 250

SMILES | IC50 [nM]
O=C(CCc1c(-c2ccc(F)cc2)[nH]c2ccc(F)cc12)N[C@H]1CCNC1=O [Compound 47] | < 250
O=C(CCc1c(-c2ccc(F)cc2)[nH]c2ccc(F)cc12)NC1CCNC1=O (centres unmarked) [Compound 48] | < 250
O=C(CCc1c(-c2ccc(F)cc2)[nH]c2ccc(F)cc12)N[C@@H]1CCNC1=O [Compound 49] | 250 to 1000
CN(C(=O)CCc1c(-c2ccc(F)cc2)[nH]c2ccc(F)cc12)C1CCNC1=O (centres unmarked) [Compound 50] | 250 to 1000
O=C(CCc1c(-c2ccccc2)[nH]c2ccc(F)cc12)N[C@@H]1C(=O)NC[C@H]1O [Compound 51] | < 250
O=C(CCc1c(-c2ccccc2)[nH]c2ccc(F)cc12)N[C@H]1CCNC1=O [Compound 52] | < 250
O=C(CCc1c(-c2ccc(F)cc2)[nH]c2ccc(OCc3ccccc3)cc12)N[C@H]1CCNC1=O [Compound 54, 3-[5-benzyloxy-2-(4-fluorophenyl)-1H-indol-3-yl]-N-[(3S)-2-oxopyrrolidin-3-yl]propanamide] | 250 to 1000
O=C(CCc1c(-c2ccc(F)cc2)[nH]c2ccc(O)cc12)N[C@H]1CCNC1=O [Compound 55, 3-[2-(4-fluorophenyl)-5-hydroxy-1H-indol-3-yl]-N-[(3S)-2-oxopyrrolidin-3-yl]propanamide] | > 1000
O=C(CCc1c(-c2ccc(F)cc2)[nH]c2c(F)c(F)ccc12)N[C@@H]1C(=O)NC[C@H]1O [Compound 58] | < 250
O=C(CCc1c(-c2ccccc2)[nH]c2c(F)c(F)ccc12)N[C@@H]1C(=O)NC[C@H]1O [Compound 59] | < 250
O=C(CCc1c(-c2ccccc2)[nH]c2c(F)cccc12)N[C@@H]1C(=O)NC[C@H]1O [Compound 61] | < 250
O=C(CCc1c(-c2ccccc2)[nH]c2c(Br)cccc12)N[C@@H]1C(=O)NC[C@H]1O [Compound 70] | < 250
O=C(CCc1c(-c2ccc(F)cc2)[nH]c2c(Cl)cccc12)N[C@H]1CCNC1=O [Compound 72] | < 250
O=C(CCc1c(-c2ccc(F)cc2)[nH]c2c(Cl)cccc12)N[C@@H]1C(=O)NC[C@H]1O [Compound 73] | < 250
O=C(CCc1c(-c2ccc(F)cc2)[nH]c2c(F)cccc12)N[C@H]1CCNC1=O [Compound 75] | < 250
O=C(CCc1c(-c2ccc(F)cc2)[nH]c2c(F)cccc12)N[C@@H]1C(=O)NC[C@H]1O [Compound 76] | < 250
O=C(CCc1c(-c2ccc(F)cc2)[nH]c2c(F)ccc(F)c12)N[C@H]1CCNC1=O [Compound 78] | > 1000
O=C(CCc1c(-c2ccccc2)[nH]c2c(F)c(F)c(F)cc12)N[C@@H]1C(=O)NC[C@H]1O [Compound 80] | < 250
O=C(CCc1c(-c2ccccc2)[nH]c2cc(F)c(F)cc12)N[C@@H]1C(=O)NC[C@H]1O [Compound 82] | < 250
O=C(CCc1c(-c2ccccc2)[nH]c2cc(F)cc(F)c12)N[C@@H]1C(=O)NC[C@H]1O [Compound 85] | < 250
O=C(CCc1c(-c2ccccc2)[nH]c2ccccc12)N[C@@H]1C(=O)NC[C@H]1O [Compound 86] | < 250
O=C(CCc1c(-c2ccc(F)cc2)[nH]c2ccccc12)N[C@@H]1C(=O)NC[C@H]1O [Compound 87, 3-[2-(4-fluorophenyl)-1H-indol-3-yl]-N-[(3S,4R)-4-hydroxy-2-oxo-pyrrolidin-3-yl]propanamide] | < 250
